Measurements reported in PubChem BioAssay (NCI).
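Exposure lasted 48 hours, with cells grown in 96-well plates and compounds tested at five concentrations. TGI denotes the concentration required for complete inhibition of growth.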

Key:
Assay in all cases: NCI tumour cell line growth inhibition, 48 h
DU-145 prostate = tested on: DU-145 prostate
PC-3 prostate = tested on: PC-3 prostate
SR leukemia = tested on: SR leukemia
MDA-MB-231 breast = tested on: MDA-MB-231 breast
MDA-N = tested on: MDA-N
P388/ADR leukemia = tested on: P388/ADR leukemia
P388 leukemia = tested on: P388 leukemia
SN12K1 renal = tested on: SN12K1 renal
XF 498 CNS = tested on: XF 498 CNS
DLD-1 colon = tested on: DLD-1 colon
LXFL 529 NSCLC = tested on: LXFL 529 NSCLC
RXF-631 renal = tested on: RXF-631 renal

| Compound | TGI (DU-145 prostate) [µM] | TGI (PC-3 prostate) [µM] | TGI (SR leukemia) [µM] | TGI (MDA-MB-231 breast) [µM] | TGI (MDA-N) [µM] | TGI (P388/ADR leukemia) [µM] | TGI (P388 leukemia) [µM] | TGI (SN12K1 renal) [µM] | TGI (XF 498 CNS) [µM] | TGI (DLD-1 colon) [µM] | TGI (LXFL 529 NSCLC) [µM] | TGI (RXF-631 renal) [µM] |
| --- | --- | --- | --- | --- | --- | --- | --- | --- | --- | --- | --- | --- |
| NC(=O)NC(CC(=O)O)C(=O)O (stereo not drawn) | > 100 | > 100 | > 100 | > 100 | > 100 |  |  |  |  |  |  |  |
| CN(C)CCCc1cccnc1 | > 100 | > 100 | > 100 | > 100 | > 100 |  |  |  |  |  |  |  |
| Nc1ccc2cc(S(=O)(=O)O)cc(O)c2c1N=Nc1ccc(NC(=O)Nc2ccc(N=Nc3c(N)ccc4cc(S(=O)(=O)O)cc(O)c34)c(S(=O)(=O)O)c2)cc1S(=O)(=O)O |  |  |  |  |  | > 100 | > 100 | > 100 | > 100 | > 100 |  |  |
| O=c1[nH]c(=O)n(C2CC(O)C(COP(=O)(O)OC3CC(n4cc(F)c(=O)[nH]c4=O)OC3COP(=O)(O)OC3CC(n4cc(F)c(=O)[nH]c4=O)OC3COP(=O)(O)OC3CC(n4cc(F)c(=O)[nH]c4=O)OC3COP(=O)(O)OC3CC(n4cc(F)c(=O)[nH]c4=O)OC3COP(=O)(O)OC3CC(n4cc(F)c(=O)[nH]c4=O)OC3COP(=O)(O)OC3CC(n4cc(F)c(=O)[nH]c4=O)OC3COP(=O)(O)OC3CC(n4cc(F)c(=O)[nH]c4=O)OC3COP(=O)(O)OC3CC(n4cc(F)c(=O)[nH]c4=O)OC3COP(=O)(O)OC3CC(n4cc(F)c(=O)[nH]c4=O)OC3CO)O2)cc1F (stereo not drawn) | > 50 | > 50 | > 50 | > 50 | > 50 |  |  |  |  |  |  |  |
| COc1cc(C2C(Cl)C(=O)N2NC(=O)c2ccc(NC(C)=O)cc2)cc(Br)c1O (stereo not drawn) |  |  | > 100 |  |  |  |  |  |  | > 100 | > 100 |  |
| O=C(N1CCOCC1)C1(c2ccccc2)CCNCC1 | > 100 | > 100 | > 100 | > 100 | > 100 |  |  |  |  |  |  |  |
| CCCCC(NC(=O)CC)C(=O)O (stereo not drawn) |  |  |  |  |  | > 100 | > 100 | > 100 | > 100 | > 100 |  |  |
| CCc1ccc(CCC(=O)O)nc1 | > 100 | > 100 | > 100 | > 100 | > 100 |  |  |  |  |  |  |  |
| CCOc1ccc(C2=C(Cl)c3cc(OC)c(OC)cc3C2Cl)cc1 (stereo not drawn) |  |  |  |  |  |  |  |  | 42.9 | > 100 | > 100 |  |
| CC(N)C(=O)c1ccc(O)cc1 (stereo not drawn) |  |  |  |  |  |  |  |  |  | > 100 | > 100 | > 100 |
| COc1nc(/C=N/NC(N)=S)nc(OC)n1 |  |  | > 100 |  |  |  |  |  | > 100 | > 100 | > 100 | > 100 |
| CC(=O)Nc1ccc(C2=N/C(=C\c3ccc(Cl)c(Cl)c3)C(=O)O2)cc1 |  |  | > 100 |  |  |  |  |  | > 100 | > 100 | > 100 | > 100 |
| CC1C(=O)C(C)C(c2cccs2)N(N=O)C1c1cccs1 (stereo not drawn) |  |  |  |  |  | > 100 | > 100 | > 100 | > 100 | > 100 |  |  |
| c1ccc2c(c1)ccc1ncccc12 | > 100 | > 100 | > 100 | > 100 |  |  |  |  |  |  |  |  |
| CN1C[C@H]2[C@@H](C1=O)[C@H](c1ccc([N+](=O)[O-])cc1)ON2C | > 100 | > 100 | > 100 | > 100 | > 100 |  |  |  |  |  |  |  |
